Reference: the CheMixHub viscosity set
± gives the uncertainty stated by the source.

Test: xn = mol fraction of the nth substance listed

In the case of `CC1CCCCC1` + CCCCCCO, the viscosity (303.15 K, 101.33 kPa, x1 = 0.1015) is reported as 3.051 ± 0.028 mPa·s, the viscosity (303.15 K, 101.33 kPa, x1 = 0.2596) is reported as 2.193 ± 0.02 mPa·s and the viscosity (303.15 K, 101.33 kPa, x1 = 0.4197) is reported as 1.536 ± 0.014 mPa·s. The viscosity (303.15 K, 101.33 kPa, x1 = 0.582) was 1.11 ± 0.01 mPa·s, the viscosity (303.15 K, 101.33 kPa, x1 = 0.7447) was 0.852 ± 0.008 mPa·s and the viscosity (303.15 K, 101.33 kPa, x1 = 0.8989) was 0.693 ± 0.006 mPa·s. For the same compound, the viscosity (303.15 K, 101.33 kPa, x2 = 0.1112) was 0.7521 ± 0.0097 mPa·s, the viscosity (303.15 K, 101.33 kPa, x2 = 0.1986) was 0.8469 ± 0.011 mPa·s and the viscosity (303.15 K, 101.33 kPa, x2 = 0.3135) was 1.009 ± 0.013 mPa·s. For the same compound, the viscosity (303.15 K, 101.33 kPa, x2 = 0.4018) was 1.148 ± 0.014 mPa·s, the viscosity (303.15 K, 101.33 kPa, x2 = 0.4981) was 1.351 ± 0.016 mPa·s and the viscosity (303.15 K, 101.33 kPa, x2 = 0.5978) was 1.595 ± 0.019 mPa·s. The viscosity (303.15 K, 101.33 kPa, x2 = 0.7018) was 1.908 ± 0.022 mPa·s, the viscosity (303.15 K, 101.33 kPa, x2 = 0.8123) was 2.408 ± 0.028 mPa·s and the viscosity (303.15 K, 101.33 kPa, x2 = 0.8923) was 2.874 ± 0.033 mPa·s.

Work on `CCOC(=O)[C@@H](O)[C@H](O)C(=O)OCC` + CCCCCCO yielded a viscosity (293.15 K, 101 kPa, x1 = 0.1001) of 6.18 ± 0.049 mPa·s, a viscosity (293.15 K, 101 kPa, x1 = 0.2) of 7.861 ± 0.062 mPa·s and a viscosity (293.15 K, 101 kPa, x1 = 0.3) of 10.57 ± 0.083 mPa·s. The viscosity (293.15 K, 101 kPa, x1 = 0.4) was 14.54 ± 0.11 mPa·s, the viscosity (293.15 K, 101 kPa, x1 = 0.5) was 20.8 ± 0.16 mPa·s and the viscosity (293.15 K, 101 kPa, x1 = 0.5998) was 30.68 ± 0.24 mPa·s. It also gave a viscosity (293.15 K, 101 kPa, x1 = 0.7001) of 43.54 ± 0.34 mPa·s, a viscosity (293.15 K, 101 kPa, x1 = 0.8) of 72.93 ± 0.64 mPa·s and a viscosity (293.15 K, 101 kPa, x1 = 0.8995) of 122.9 ± 1.6 mPa·s. The viscosity (298.15 K, 101 kPa, x1 = 0.1001) was 5.252 ± 0.042 mPa·s, the viscosity (298.15 K, 101 kPa, x1 = 0.2) was 6.543 ± 0.052 mPa·s and the viscosity (298.15 K, 101 kPa, x1 = 0.3) was 8.559 ± 0.067 mPa·s. For the same compound, the viscosity (298.15 K, 101 kPa, x1 = 0.4) was 11.55 ± 0.09 mPa·s, the viscosity (298.15 K, 101 kPa, x1 = 0.5) was 16.09 ± 0.13 mPa·s and the viscosity (298.15 K, 101 kPa, x1 = 0.5998) was 22.97 ± 0.18 mPa·s. For the same compound, the viscosity (298.15 K, 101 kPa, x1 = 0.7001) was 31.66 ± 0.25 mPa·s, the viscosity (298.15 K, 101 kPa, x1 = 0.8) was 50.5 ± 0.37 mPa·s and the viscosity (298.15 K, 101 kPa, x1 = 0.8995) was 81.01 ± 0.77 mPa·s. The viscosity (303.15 K, 101 kPa, x1 = 0.1001) was 4.449 ± 0.036 mPa·s, the viscosity (303.15 K, 101 kPa, x1 = 0.2) was 5.484 ± 0.043 mPa·s and the viscosity (303.15 K, 101 kPa, x1 = 0.3) was 7.046 ± 0.056 mPa·s. For the same compound, the viscosity (303.15 K, 101 kPa, x1 = 0.4) was 9.307 ± 0.073 mPa·s, the viscosity (303.15 K, 101 kPa, x1 = 0.5) was 12.59 ± 0.098 mPa·s and the viscosity (303.15 K, 101 kPa, x1 = 0.5998) was 17.51 ± 0.14 mPa·s. For the same compound, the viscosity (303.15 K, 101 kPa, x1 = 0.7001) was 23.57 ± 0.18 mPa·s, the viscosity (303.15 K, 101 kPa, x1 = 0.8) was 36.18 ± 0.28 mPa·s and the viscosity (303.15 K, 101 kPa, x1 = 0.8995) was 55.71 ± 0.41 mPa·s. It also gave a viscosity (308.15 K, 101 kPa, x1 = 0.1001) of 3.803 ± 0.031 mPa·s, a viscosity (308.15 K, 101 kPa, x1 = 0.2) of 4.618 ± 0.037 mPa·s and a viscosity (308.15 K, 101 kPa, x1 = 0.3) of 5.836 ± 0.046 mPa·s. It also gave a viscosity (308.15 K, 101 kPa, x1 = 0.4) of 7.569 ± 0.06 mPa·s, a viscosity (308.15 K, 101 kPa, x1 = 0.5) of 10.04 ± 0.079 mPa·s and a viscosity (308.15 K, 101 kPa, x1 = 0.5998) of 13.64 ± 0.11 mPa·s. The viscosity (308.15 K, 101 kPa, x1 = 0.7001) was 18 ± 0.14 mPa·s, the viscosity (308.15 K, 101 kPa, x1 = 0.8) was 26.73 ± 0.21 mPa·s and the viscosity (308.15 K, 101 kPa, x1 = 0.8995) was 39.73 ± 0.31 mPa·s. For the same compound, the viscosity (313.15 K, 101 kPa, x1 = 0.1001) was 3.251 ± 0.026 mPa·s, the viscosity (313.15 K, 101 kPa, x1 = 0.2) was 3.893 ± 0.031 mPa·s and the viscosity (313.15 K, 101 kPa, x1 = 0.3) was 4.85 ± 0.039 mPa·s. The viscosity (313.15 K, 101 kPa, x1 = 0.4) was 6.204 ± 0.049 mPa·s, the viscosity (313.15 K, 101 kPa, x1 = 0.5) was 8.087 ± 0.064 mPa·s and the viscosity (313.15 K, 101 kPa, x1 = 0.5998) was 10.78 ± 0.084 mPa·s. The viscosity (313.15 K, 101 kPa, x1 = 0.7001) was 13.99 ± 0.11 mPa·s, the viscosity (313.15 K, 101 kPa, x1 = 0.8) was 20.22 ± 0.16 mPa·s and the viscosity (313.15 K, 101 kPa, x1 = 0.8995) was 29.19 ± 0.23 mPa·s. The viscosity (318.15 K, 101 kPa, x1 = 0.1001) was 2.838 ± 0.023 mPa·s, the viscosity (318.15 K, 101 kPa, x1 = 0.2) was 3.369 ± 0.027 mPa·s and the viscosity (318.15 K, 101 kPa, x1 = 0.3) was 4.146 ± 0.033 mPa·s. It also gave a viscosity (318.15 K, 101 kPa, x1 = 0.4) of 5.219 ± 0.041 mPa·s, a viscosity (318.15 K, 101 kPa, x1 = 0.5) of 6.697 ± 0.053 mPa·s and a viscosity (318.15 K, 101 kPa, x1 = 0.5998) of 8.77 ± 0.069 mPa·s. For the same compound, the viscosity (318.15 K, 101 kPa, x1 = 0.7001) was 11.19 ± 0.087 mPa·s, the viscosity (318.15 K, 101 kPa, x1 = 0.8) was 15.77 ± 0.12 mPa·s and the viscosity (318.15 K, 101 kPa, x1 = 0.8995) was 22.15 ± 0.17 mPa·s. For the same compound, the viscosity (323.15 K, 101 kPa, x1 = 0.1001) was 2.506 ± 0.021 mPa·s, the viscosity (323.15 K, 101 kPa, x1 = 0.2) was 2.946 ± 0.024 mPa·s and the viscosity (323.15 K, 101 kPa, x1 = 0.3) was 3.581 ± 0.029 mPa·s. The viscosity (323.15 K, 101 kPa, x1 = 0.4) was 4.451 ± 0.036 mPa·s, the viscosity (323.15 K, 101 kPa, x1 = 0.5) was 5.632 ± 0.045 mPa·s and the viscosity (323.15 K, 101 kPa, x1 = 0.5998) was 7.262 ± 0.057 mPa·s. The viscosity (323.15 K, 101 kPa, x1 = 0.7001) was 9.138 ± 0.071 mPa·s, the viscosity (323.15 K, 101 kPa, x1 = 0.8) was 12.59 ± 0.098 mPa·s and the viscosity (323.15 K, 101 kPa, x1 = 0.8995) was 17.3 ± 0.14 mPa·s.
